# Data taken from ChEMBL document CHEMBL5120787, “Selaginellin Inhibits Melanogenesis via the MAPK Signaling Pathway” (J Nat Prod, 2022).
# The source made the active and inactive calls. No cut-off for these calls is given here.
# What was measured:
# MNT-1 [1] = experiment: Anti-melanogenic activity against human MNT-1 cells cocultured with 24 hrs compound pretreated human fibroblast cells supernatant assessed as inhibition of SCF mRNA expression at 20 uM and measured after 48 hrs by qRT-PCR analysis; format: functional, cell-based; settings: time 72.0 hrs
# MNT-1 [2] = experiment: Anti-melanogenic activity against human MNT-1 cells cocultured with 24 hrs compound pretreated human fibroblast cells supernatant assessed as inhibition of SCF protein expression at 20 uM and measured after 48 hrs by Western blot analysis; format: functional, cell-based; settings: time 72.0 hrs
# MNT-1 [3] = experiment: Anti-melanogenic activity against human MNT-1 cells cocultured with 24 hrs compound pretreated human fibroblast cells supernatant assessed as decrease in melanin content at 20 uM and measured after 48 hrs by Fontana-Masson staining based microscopic analysis; format: functional, cell-based; settings: time 72.0 hrs
# MNT-1 [4] = experiment: Anti-melanogenic activity against human MNT-1 cells cocultured with 24 hrs compound pretreated human HaCaT cells supernatant assessed as inhibition of LIF protein expression at 20 uM and measured after 48 hrs by Western blot analysis; format: functional, cell-based; settings: time 72.0 hrs
# MNT-1 [5] = experiment: Anti-melanogenic activity against human MNT-1 cells cocultured with 24 hrs compound pretreated human HaCaT cells supernatant assessed as inhibition of SCF protein expression at 20 uM and measured after 48 hrs by Western blot analysis; format: functional, cell-based; settings: time 72.0 hrs
# MNT-1 [6] = experiment: Anti-melanogenic activity against human MNT-1 cells cocultured with 24 hrs compound pretreated human fibroblast cells supernatant assessed as inhibition of LIF protein expression at 20 uM and measured after 48 hrs by Western blot analysis; format: functional, cell-based; settings: time 72.0 hrs
# MNT-1 [7] = experiment: Anti-melanogenic activity against human MNT-1 cells cocultured with 24 hrs compound pretreated human HaCaT cells supernatant assessed as inhibition of SCF mRNA expression at 20 uM and measured after 48 hrs by qRT-PCR analysis; format: functional, cell-based; settings: time 72.0 hrs
# MNT-1 [8] = experiment: Anti-melanogenic activity against human MNT-1 cells cocultured with 24 hrs compound pretreated human fibroblast cells supernatant assessed as inhibition of LIF mRNA expression at 20 uM and measured after 48 hrs by qRT-PCR analysis; format: functional, cell-based; settings: time 72.0 hrs
# MNT-1 [9] = experiment: Anti-melanogenic activity against human MNT-1 cells cocultured with 24 hrs compound pretreated human HaCaT cells supernatant assessed as decrease in melanin content at 20 uM and measured after 48 hrs by Fontana-Masson staining based microscopic analysis; format: functional, cell-based; settings: time 72.0 hrs
# MNT-1 [10] = experiment: Anti-melanogenic activity against human MNT-1 cells cocultured with 24 hrs compound pretreated human HaCaT cells supernatant assessed as inhibition of LIF mRNA expression at 20 uM and measured after 48 hrs by qRT-PCR analysis; format: functional, cell-based; settings: time 72.0 hrs
# Danio rerio = species: Danio rerio; experiment: Inhibition of melanogenesis in zebra fish embryos assessed as decrease in melanin granule density at 10 to 50 uM measured upto 6 days by inverted microscope analysis; format: functional; settings: dose 10-50 µM, time <= 6.0 day
# B16-F10 [11] = experiment: Anti-melanogenic activity against mouse B16-F10 cells at 200 nM; format: functional, cell-based
# B16-F10 [12] = experiment: Anti-melanogenic activity against mouse B16-F10 cells assessed as decrease in TRP2 protein level at 25 to 100 nM measured after 48 hrs by Western blot analysis; format: functional, cell-based; settings: dose 25-100 nM
# Fibroblast [13] = experiment: Cytotoxicity against human Fibroblast assessed as reduction in cell viability upto 10 uM measured after 48 to 72 hrs by MTT assay; format: toxicity, cell-based; settings: time 48-72 hrs
# B16-F10 [14] = experiment: Anti-melanogenic activity against mouse B16-F10 cells assessed as decrease in MITF protein level at 25 to 100 nM measured after 48 hrs by Western blot analysis; format: functional, cell-based; settings: dose 25-100 nM
# B16-F10 [15] = experiment: Inhibition of MAPK signaling pathway in mouse B16-F10 cells assessed as decrease in phosphorylated p38 at 25 to 100 nM for 48 hrs by Western blot analysis; format: cell-based; settings: dose 25-100 nM
# Fibroblast [16] = experiment: Anti-melanogenic activity against UVB-induced human fibroblast cells assessed as decrease in LIF protein level at 10 uM incubated for 24 hrs by Western blot analysis; format: functional, cell-based
# Fibroblast [17] = experiment: Anti-melanogenic activity against UVB-induced human fibroblast cells assessed as inhibition of SCF mRNA expression at 10 uM incubated for 24 hrs by qRT-PCR analysis; format: functional, cell-based
# B16-F10 [18] = experiment: Inhibition of MAPK signaling pathway in mouse B16-F10 cells assessed as decrease in phosphorylated ERK at 25 to 100 nM for 48 hrs by Western blot analysis; format: cell-based; settings: dose 25-100 nM
# B16-F10 [19] = experiment: Anti-melanogenic activity against mouse B16-F10 cells assessed as decrease in […] at 25 to 100 nM incubated for 48 hrs; format: functional, cell-based; settings: dose 25-100 nM
# HaCaT [20] = experiment: Anti-melanogenic activity against UVB-induced human HaCaT cells assessed as decrease in LIF protein level at 10 uM incubated for 24 hrs by Western blot analysis; format: functional, cell-based
# Mushroom tyrosinase = Mushroom tyrosinase (Agaricus bisporus, UniProt O42713+Q00024+C7FF04+C7FF05); experiment: Inhibition of mushroom tyrosinase using L-DOPA as substrate preincubated with substrate for 10 mins followed by addition of enzyme and measured for 10 mins
# B16-F10 [21] = experiment: Anti-melanogenic activity against mouse B16-F10 cells assessed as decrease in RAB27A protein level at 25 to 100 nM measured after 48 hrs by Western blot analysis; format: functional, cell-based; settings: dose 25-100 nM
# B16-F10 [22] = experiment: Anti-melanogenic activity against mouse B16-F10 cells assessed as decrease in TYR protein level at 25 to 100 nM measured after 48 hrs by Western blot analysis; format: functional, cell-based; settings: dose 25-100 nM
# B16-F10 [23] = experiment: Inhibition of MAPK signaling pathway in mouse B16-F10 cells assessed as decrease in phosphorylated JNK at 25 to 100 nM for 48 hrs by Western blot analysis; format: cell-based; settings: dose 25-100 nM
# B16-F10 [24] = experiment: Cytotoxicity against mouse B16-F10 cells assessed as reduction in cell viability upto 10 uM measured after 48 to 72 hrs by MTT assay; format: toxicity, cell-based; settings: b16-f10, 10 µM, time 48-72 hrs
# Melan-a [25] = experiment: Anti-melanogenic activity against mouse Melan-a cells assessed as decrease in alpha-MSH-induced Tyr activity at 0.01 to 10 uM incubated for 48 hrs; format: functional, cell-based; settings: dose 0.01-10 µM
# Fibroblast [26] = experiment: Anti-melanogenic activity against UVB-induced human fibroblast cells assessed as inhibition of LIF mRNA expression at 10 uM incubated for 24 hrs by qRT-PCR analysis; format: functional, cell-based
# Melan-a [27] = experiment: Anti-melanogenic activity against mouse Melan-a cells assessed as alpha-MSH-induced decrease in Tyr activity at 0.01 to 10 uM incubated for 48 hrs by RBFP based fluorescence microscope analysis; format: functional, cell-based; settings: dose 0.01-10 µM
# HaCaT [28] = experiment: Anti-melanogenic activity against UVB-induced human HaCaT cells assessed as decrease in SCF protein level at 10 uM incubated for 24 hrs by Western blot analysis; format: functional, cell-based
# MNT-1 [29] = experiment: Anti-melanogenic activity against UVB-induced human MNT-1 cells cocultured with 24 hrs human HaCaT cells supernatant assessed as decrease in melanin content at 10 uM incubated for 48 hrs by Fontana-Masson staining based microscopic analysis; format: functional, cell-based; settings: time 72.0 hrs
# Fibroblast [30] = experiment: Anti-melanogenic activity against UVB-induced human fibroblast cells assessed as decrease in SCF protein level at 10 uM incubated for 24 hrs by Western blot analysis; format: functional, cell-based
# B16-F10 [31] = experiment: Anti-melanogenic activity against mouse B16-F10 cells assessed as decrease in melanin content at 25 to 100 nM incubated for 48 hrs by Fontana-Masson staining based inverted microscopic analysis; format: functional, cell-based; settings: dose 25-100 nM
# MNT-1 [32] = experiment: Anti-melanogenic activity against UVB-induced human MNT-1 cells cocultured with 24 hrs human fibroblast cells supernatant assessed as decrease in melanin content at 10 uM incubated for 48 hrs by Fontana-Masson staining based microscopic analysis; format: functional, cell-based; settings: time 72.0 hrs
# B16-F10 [33] = experiment: Anti-melanogenic activity against mouse B16-F10 cells at 50 nM; format: functional, cell-based
# B16-F10 [34] = experiment: Anti-melanogenic activity against mouse B16-F10 cells assessed as decrease in TRP1 protein level at 25 to 100 nM measured after 48 hrs by Western blot analysis; format: functional, cell-based; settings: dose 25-100 nM
# HaCaT [35] = experiment: Anti-melanogenic activity against UVB-induced human HaCaT cells assessed as inhibition of LIF mRNA expression at 10 uM incubated for 24 hrs by qRT-PCR analysis; format: functional, cell-based
# HaCaT [36] = experiment: Cytotoxicity against human HaCaT cells assessed as reduction in cell viability upto 10 uM measured after 48 to 72 hrs by MTT assay; format: toxicity, cell-based; settings: time 48-72 hrs
# [37] = Cytotoxicity against mouse Melan-a cells assessed as reduction in cell viability upto 10 uM measured after 48 to 72 hrs by MTT assay; format: toxicity, cell-based; settings: time 48-72 hrs
# MNT-1 [38] = experiment: Anti-melanogenic activity against human MNT-1 cells assessed as decrease in melanin content at 10 uM incubated for 48 hrs by Fontana-Masson staining based microscopic analysis; format: functional, cell-based
# MNT-1 [39] = experiment: Cytotoxicity against human MNT-1 cells assessed as reduction in cell viability upto 10 uM measured after 48 to 72 hrs by MTT assay; format: toxicity, cell-based; settings: mnt-1, 10 µM, time 48-72 hrs
# B16-F10 [40] = experiment: Anti-melanogenic activity against mouse B16-F10 cells assessed as decrease in […] at 25 to 100 nM incubated for 48 hrs by RBFP based fluorescence microscope analysis; format: functional, cell-based; settings: dose 25-100 nM
# HaCaT [41] = experiment: Anti-melanogenic activity against UVB-induced human HaCaT cells assessed as inhibition of SCF mRNA expression at 10 uM incubated for 24 hrs by qRT-PCR analysis; format: functional, cell-based
# Melan-a [42] = experiment: Anti-melanogenic activity against mouse Melan-a cells assessed as decrease in alpha-MSH-induced melanin content at 0.01 to 10 uM incubated for 48 hrs by Fontana-Masson staining based inverted microscopic analysis; format: functional, cell-based; settings: dose 0.01-10 µM
smiles,measurement,setting,value
COc1ccc(-c2cc(=O)c3c(OC)c(OC)c(OC)c(OC)c3o2)cc1OC,Activity,MNT-1 [1],Active
same,Activity,MNT-1 [2],Active
same,Activity,MNT-1 [3],Active
same,Activity,MNT-1 [4],Active
same,Activity,MNT-1 [5],Active
same,Activity,MNT-1 [6],Active
same,Activity,MNT-1 [7],Active
same,Activity,MNT-1 [8],Active
same,Activity,MNT-1 [9],Active
same,Activity,MNT-1 [10],Active
NC(=S)Nc1ccccc1,inhibition,Danio rerio,Active
O=c1cc(CO)occ1O,Activity,B16-F10 [11],Active
O=C1C=CC(=C(c2ccc(O)cc2)c2c(-c3ccc(O)cc3)ccc(CO)c2C#Cc2ccc(O)cc2)C=C1,Activity,B16-F10 [12],Active
same,Activity,Fibroblast [13],Non-Toxic
same,Activity,B16-F10 [14],Active
same,inhibition,B16-F10 [15],Active
same,Activity,Fibroblast [16],Active
same,Activity,Fibroblast [17],Active
same,inhibition,B16-F10 [18],Active
same,Activity,B16-F10 [19],Active
same,Activity,HaCaT [20],Active
same,IC50,Mushroom tyrosinase,9.24 µM
same,Activity,B16-F10 [21],Active
same,Activity,B16-F10 [22],Active
same,inhibition,B16-F10 [23],Active
same,Activity,B16-F10 [24],Non-Toxic
same,Activity,Melan-a [25],Active
same,Activity,Fibroblast [26],Active
same,Activity,Melan-a [27],Active
same,Activity,HaCaT [28],Active
same,Activity,MNT-1 [29],Active
same,Activity,Fibroblast [30],Active
same,Activity,B16-F10 [31],Active
same,Activity,MNT-1 [32],Active
same,Activity,B16-F10 [33],Active
same,Activity,B16-F10 [34],Active
same,Activity,HaCaT [35],Active
same,Activity,HaCaT [36],Non-Toxic
same,Activity,[37],Non-Toxic
same,Activity,MNT-1 [38],Active
same,Activity,MNT-1 [39],Non-Toxic
same,Activity,B16-F10 [40],Active
same,Activity,HaCaT [41],Active
same,Activity,Melan-a [42],Active
